Here are results for 32 compounds from patent publication US11066396B2 (priority 2016, dated 2021).

One assay addresses HDAC8 (Homo sapiens (Human), UniProt Q9BY41). The settings on record: read-out: HDAC8 IC50.
The target in the next assay is HDAC1 (Homo sapiens (Human), UniProt Q13547). The settings on record: read-out: HDAC1 IC50.
HDAC1, sequence (Q13547 whole entry): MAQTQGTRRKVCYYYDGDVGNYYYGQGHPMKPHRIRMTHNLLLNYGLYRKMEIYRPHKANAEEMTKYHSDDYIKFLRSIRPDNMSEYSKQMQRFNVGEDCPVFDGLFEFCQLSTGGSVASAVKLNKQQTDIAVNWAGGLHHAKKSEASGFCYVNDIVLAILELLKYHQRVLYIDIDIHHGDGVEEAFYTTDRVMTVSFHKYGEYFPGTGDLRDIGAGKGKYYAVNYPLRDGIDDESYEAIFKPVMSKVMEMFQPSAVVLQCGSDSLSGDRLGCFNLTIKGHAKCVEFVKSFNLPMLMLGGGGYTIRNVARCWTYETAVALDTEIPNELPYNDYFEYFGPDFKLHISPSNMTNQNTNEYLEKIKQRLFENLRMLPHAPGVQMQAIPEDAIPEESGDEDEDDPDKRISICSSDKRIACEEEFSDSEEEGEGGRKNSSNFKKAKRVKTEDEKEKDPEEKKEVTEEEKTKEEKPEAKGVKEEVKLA

HDAC8, sequence (Q9BY41 whole entry): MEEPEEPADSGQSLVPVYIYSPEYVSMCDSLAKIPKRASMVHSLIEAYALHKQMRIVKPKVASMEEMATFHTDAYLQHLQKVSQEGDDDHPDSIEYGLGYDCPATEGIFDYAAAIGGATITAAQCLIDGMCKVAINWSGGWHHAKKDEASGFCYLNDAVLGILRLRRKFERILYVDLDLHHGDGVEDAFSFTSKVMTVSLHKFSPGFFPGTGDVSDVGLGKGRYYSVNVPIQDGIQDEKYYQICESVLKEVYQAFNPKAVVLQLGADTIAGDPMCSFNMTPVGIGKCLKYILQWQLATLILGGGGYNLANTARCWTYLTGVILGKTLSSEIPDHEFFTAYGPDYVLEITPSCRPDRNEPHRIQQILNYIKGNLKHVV

Regarding `O=C1CCC(c2ccccc2Cl)N1c1ccc(-c2noc(C(F)(F)F)n2)c(F)c1` (racemic) [Example 37, 5-(2-chlorophenyl)-1-(3-fluoro-4-(5-(trifluoromethyl)-1,2,4-oxadiazol-3-yl)phenyl)pyrrolidin-2-one], the half-inhibitory concentration (IC50) (usually the concentration at which inhibition is half-maximal) at HDAC8 came out at 10000 nM; at HDAC1, 16000 nM.

For the compound `Cc1noc(C2CCCC(=O)N2c2ccc(-c3noc(C(F)(F)F)n3)cc2)n1` (racemic) [Example 48, 6-(3-methyl-1,2,4-oxadiazol-5-yl)-1-(4-(5-(trifluoromethyl)-1,2,4-oxadiazol-3-yl)phenyl)piperidin-2-one], the 50% inhibitory concentration (IC50) on HDAC8 is 1800 nM; on HDAC1, 2200 nM.

As to `O=C(C1CCS(=O)(=O)C1)N(Cc1ccc(-c2noc(C(F)(F)F)n2)cn1)c1cccc(F)c1` (racemic) [Example 54, N-(3-fluorophenyl)-N-((5-(5-(trifluoromethyl)-1,2,4-oxadiazol-3-yl)pyridin-2-yl)methyl)tetrahydrothiophene-3-carboxamide 1,1-dioxide], the 50% inhibitory concentration (IC50) is 2600 nM on HDAC8 and 270 nM at HDAC1.

In the case of `CCN1CCCC(C(=O)N(Cc2ccc(-c3noc(C(F)(F)F)n3)cn2)c2cccc(F)c2)C1` (racemic) [Example 57, 1-ethyl-N-(3-fluorophenyl)-N-((5-(5-(trifluoromethyl)-1,2,4-oxadiazol-3-yl)pyridin-2-yl)methyl)piperidine-3-carboxamide], the IC50 on HDAC8 amounted to 2000 nM; at HDAC1, 240 nM.

With `CC(C)N1CCCC(C(=O)N(Cc2ccc(-c3noc(C(F)(F)F)n3)cn2)c2cccc(F)c2)C1` (racemic) [Example 61, N-(3-fluorophenyl)-1-isopropyl-N-((5-(5-(trifluoromethyl)-1,2,4-oxadiazol-3-yl)pyridin-2-yl)methyl)piperidine-3-carboxamide], the results for the half-inhibitory concentration (IC50) on HDAC8 and at HDAC1 were 2000 nM and 260 nM, respectively.

On to `CC1(C)CC(C(=O)N(Cc2ccc(-c3noc(C(F)(F)F)n3)cn2)c2cccc(F)c2)CCO1` (racemic) [Example 63, N-(3-fluorophenyl)-2,2-dimethyl-N-((5-(5-(trifluoromethyl)-1,2,4-oxadiazol-3-yl)pyridin-2-yl)methyl)tetrahydro-2H-pyran-4-carboxamide], for which the half-maximal inhibitory concentration (IC50) at HDAC8 was 1500 nM; on HDAC1 it was 260 nM.

On to `Cc1cn(C(C)C(=O)N(Cc2ccc(-c3noc(C(F)(F)F)n3)cn2)c2cccc(F)c2)nn1` (racemic) [Example 64, N-(3-fluorophenyl)-2-(4-methyl-1H-1,2,3-triazol-1-yl)-N-((5-(5-(trifluoromethyl)-1,2,4-oxadiazol-3-yl)pyridin-2-yl)methyl)propanamide], for which the IC50 on HDAC8 turned out to be 2800 nM; at HDAC1 it was 200 nM.

As for `CC(C(=O)N(Cc1ccc(-c2noc(C(F)(F)F)n2)cc1)c1cccc(C(F)(F)F)c1)n1cncn1` (racemic) [Example 66, 2-(1H-1,2,4-triazol-1-yl)-N-(4-(5-(trifluoromethyl)-1,2,4-oxadiazol-3-yl)benzyl)-N-(3-(trifluoromethyl)phenyl)propanamide], the half-maximal inhibitory concentration (IC50) at HDAC8 was determined as 1900 nM; at HDAC1, 720 nM.

Turning to `O=C1NCCN(c2ccc(-c3noc(C(F)(F)F)n3)cn2)C1c1cccc(F)c1` (racemic) [Example 132, 3-(3-fluorophenyl)-4-(5-(5-(trifluoromethyl)-1,2,4-oxadiazol-3-yl)pyridin-2-yl)piperazin-2-one], the half-maximal inhibitory concentration (IC50) on HDAC8 was 630 nM.

Take `FC(F)(F)c1cccc(C2COCCN2c2ccc(-c3noc(C(F)(F)F)n3)cn2)c1` (racemic) [Example 146, 4-(5-(5-(trifluoromethyl)-1,2,4-oxadiazol-3-yl)pyridin-2-yl)-3-(3-(trifluoromethyl)phenyl)morpholine]: the 50% inhibitory concentration (IC50) on HDAC8 came out at 20000 nM.

On to `FC(F)(F)c1nc(-c2ccc(N3CCCCC3c3ccccn3)nc2)no1` (racemic) [Example 147, 3-(6-(2-(pyridin-2-yl)piperidin-1-yl)pyridin-3-yl)-5-(trifluoromethyl)-1,2,4-oxadiazole], for which the IC50 at HDAC8 was found to be 3200 nM.

In the case of `FC(F)(F)c1nc(-c2ccc(N3CCCC3c3ccncc3)nc2)no1` (racemic) [Example 150, 3-(6-(2-(pyridin-4-yl)pyrrolidin-1-yl)pyridin-3-yl)-5-(trifluoromethyl)-1,2,4-oxadiazole], the 50% inhibitory concentration (IC50) at HDAC8 stood at 1800 nM.

Regarding `FC(F)(F)c1nc(-c2ccc(N3CCCC3c3cccnc3)nc2)no1` (racemic) [Example 151, 3-(6-(2-(pyridin-3-yl)pyrrolidin-1-yl)pyridin-3-yl)-5-(trifluoromethyl)-1,2,4-oxadiazole], at HDAC8, the IC50 is 1600 nM.

For `OCC1CC(c2ccccc2)N(c2ccc(-c3noc(C(F)(F)F)n3)cn2)C1` (racemic) [Example 152, (5-phenyl-1-(5-(5-(trifluoromethyl)-1,2,4-oxadiazol-3-yl)pyridin-2-yl)pyrrolidin-3-yl)methanol], on HDAC8, the IC50 came out at 840 nM.

Take `FC(F)(F)c1nc(-c2ccc(N3CCCC3c3ccccn3)nc2)no1` (racemic) [Example 154, 3-(6-(2-(pyridin-2-yl)pyrrolidin-1-yl)pyridin-3-yl)-5-(trifluoromethyl)-1,2,4-oxadiazole]: on HDAC8, the IC50 amounted to 3400 nM.

As for `Cc1nonc1C1CCCN1c1ccc(-c2noc(C(F)(F)F)n2)cn1` (racemic) [Example 155, 3-(6-(2-(4-methyl-1,2,5-oxadiazol-3-yl)pyrrolidin-1-yl)pyridin-3-yl)-5-(trifluoromethyl)-1,2,4-oxadiazole], the IC50 on HDAC8 came out at 1800 nM.

`FC(F)(F)c1nc(-c2ccc(N3CCCCC3c3cccnc3)nc2)no1` (racemic) [Example 157, 3-(6-(2-(pyridin-3-yl)piperidin-1-yl)pyridin-3-yl)-5-(trifluoromethyl)-1,2,4-oxadiazole]: on HDAC8, the IC50 was determined as 3300 nM.

Take `CCOC(=O)N1CCN(c2ccc(-c3noc(C(F)(F)F)n3)cn2)C(c2ccccc2)C1` (racemic) [Example 159, ethyl 3-phenyl-4-(5-(5-(trifluoromethyl)-1,2,4-oxadiazol-3-yl)pyridin-2-yl)piperazine-1-carboxylate]: the IC50 at HDAC8 was 4000 nM.

For `FC(F)(F)c1nc(-c2ccc(CNCC3CN(Cc4ccccc4)CCO3)nc2)no1` (racemic) [Example 453, 1-(4-benzylmorpholin-2-yl)-N-({5-[5-(trifluoromethyl)-1,2,4-oxadiazol-3-yl]pyridin-2-yl}methyl)methanamine], the 50% inhibitory concentration (IC50) on HDAC8 came out at 1900 nM.

Turning to `FC(F)(F)c1nc(-c2ccc(CNCC3CN(c4ccccc4)CCO3)nc2)no1` (racemic) [Example 454, 1-(4-phenylmorpholin-2-yl)-N-({5-[5-(trifluoromethyl)-1,2,4-oxadiazol-3-yl]pyridin-2-yl}methyl)methanamine], the half-maximal inhibitory concentration (IC50) on HDAC8 is 1700 nM.

For `Cc1noc([C@H]2CCCCN2c2ccc(-c3noc(C(F)(F)F)n3)cn2)n1` [Example 138, (R)-3-methyl-5-(1-(5-(5-(trifluoromethyl)-1,2,4-oxadiazol-3-yl)pyridin-2-yl)piperidin-2-yl)-1,2,4-oxadiazole], on HDAC8, the IC50 turned out to be 1200 nM.

For the compound `FC(F)(F)c1nc(-c2ccc(N3CCOC[C@H]3c3ccccc3)nc2)no1` [Example 144, (R)-3-phenyl-4-(5-(5-(trifluoromethyl)-1,2,4-oxadiazol-3-yl)pyridin-2-yl)morpholine], the IC50 on HDAC8 stood at 2700 nM.

Consider `Cc1cc(=O)n2c(n1)CN(c1ccc(-c3noc(C(F)(F)F)n3)cn1)CC2` [Example 158, 2-methyl-8-(5-(5-(trifluoromethyl)-1,2,4-oxadiazol-3-yl)pyridin-2-yl)-6,7,8,9-tetrahydro-4H-pyrazino[1,2-a]pyrimidin-4-one], for which the half-maximal inhibitory concentration (IC50) on HDAC8 was determined as 750 nM.

With `O=C1CCc2ccc(F)cc2N1Cc1ccc(-c2noc(C(F)(F)F)n2)cc1` [Example 318, 7-fluoro-1-{4-[5-(trifluoromethyl)-1,2,4-oxadiazol-3-yl]benzyl}-3,4-dihydroquinolin-2(1H)-one], the IC50 on HDAC8 was determined as 1800 nM.

On to `FC(F)(F)c1nc(-c2ccc(CNc3cc[nH]n3)nc2)no1` [Example 432, N-({5-[5-(trifluoromethyl)-1,2,4-oxadiazol-3-yl]pyridin-2-yl}methyl)-1H-pyrazol-3-amine], for which, at HDAC8, the half-inhibitory concentration (IC50) turned out to be 1300 nM.

Consider `O=C(c1cccc(NCc2ccc(-c3noc(C(F)(F)F)n3)cn2)c1)N1CCCC1` [Example 439, 3-(pyrrolidin-1-ylcarbonyl)-N-({5-[5-(trifluoromethyl)-1,2,4-oxadiazol-3-yl]pyridin-2-yl}methyl)aniline], for which the IC50 on HDAC8 was determined as 1400 nM.

`O=C(Nc1ccccc1)c1cccc(NCc2ccc(-c3noc(C(F)(F)F)n3)cn2)c1` [Example 440, N-phenyl-3-[({5-[5-(trifluoromethyl)-1,2,4-oxadiazol-3-yl]pyridin-2-yl}methyl)amino]benzamide]: on HDAC8, the IC50 is 280 nM.

`O=C(NCc1ccccc1)c1ccccc1NCc1ccc(-c2noc(C(F)(F)F)n2)cn1` [Example 448, N-benzyl-2-[({5-[5-(trifluoromethyl)-1,2,4-oxadiazol-3-yl]pyridin-2-yl}methyl)amino]benzamide]: the IC50 at HDAC8 is 530 nM.

In the case of `CC(=O)N1CCC(CNCc2ccc(-c3noc(C(F)(F)F)n3)cn2)CC1` [Example 455, 1-(1-acetylpiperidin-4-yl)-N-({5-[5-(trifluoromethyl)-1,2,4-oxadiazol-3-yl]pyridin-2-yl}methyl)methanamine], the IC50 on HDAC8 stood at 3800 nM.

As to `O=C1CCc2cc(C(F)(F)F)ccc2N1Cc1ccc(-c2noc(C(F)(F)F)n2)cn1` [Example 464, 6-(trifluoromethyl)-1-({5-[5-(trifluoromethyl)-1,2,4-oxadiazol-3-yl]pyridin-2-yl}methyl)-3,4-dihydroquinolin-2(1H)-one], on HDAC1, the IC50 turned out to be 300 nM.

With `Cc1nc2cc(F)ccc2n1Cc1ccc(-c2noc(C(F)(F)F)n2)cn1` [Example 466, 5-fluoro-2-methyl-1-({5-[5-(trifluoromethyl)-1,2,4-oxadiazol-3-yl]pyridin-2-yl}methyl)-1H-benzimidazole], the concentration for half-maximal inhibition (IC50) on HDAC1 came out at 840 nM.

In the case of `O=c1cnc2ccccc2n1Cc1ccc(-c2noc(C(F)(F)F)n2)cn1` [Example 467, 1-({5-[5-(trifluoromethyl)-1,2,4-oxadiazol-3-yl]pyridin-2-yl}methyl)quinoxalin-2(1H)-one], the IC50 at HDAC1 came to 170 nM.
